Assay results from ChEMBL document CHEMBL4622970, “Design, Synthesis, and Evaluation of New Quinazolinone Derivatives that Inhibit Bloom Syndrome Protein (BLM) Helicase, Trigger DNA Damage at the Telomere Region, and Synergize with PARP Inhibitors” (J Med Chem, 2020).
The source made the active and inactive calls. No cut-off for these calls is given here.

Experiments:
[1] = target: T1, RecQ-like DNA helicase BLM (Homo sapiens, UniProt P54132); assay: Inhibition of His-tagged BLM (642 to 1296 residues) (unknown origin) expressed in Escherichia coli BL21 (DE3) cells assessed as reduction in DNA unwinding activity using 5'-biotin-labeled forked DNA as substrate preincubated for 1 hr followed by substrate addition and measured after 1 hr by electrophoretic mobility shift assay
T1 sequence (P54132 whole entry, the tested form may be a part): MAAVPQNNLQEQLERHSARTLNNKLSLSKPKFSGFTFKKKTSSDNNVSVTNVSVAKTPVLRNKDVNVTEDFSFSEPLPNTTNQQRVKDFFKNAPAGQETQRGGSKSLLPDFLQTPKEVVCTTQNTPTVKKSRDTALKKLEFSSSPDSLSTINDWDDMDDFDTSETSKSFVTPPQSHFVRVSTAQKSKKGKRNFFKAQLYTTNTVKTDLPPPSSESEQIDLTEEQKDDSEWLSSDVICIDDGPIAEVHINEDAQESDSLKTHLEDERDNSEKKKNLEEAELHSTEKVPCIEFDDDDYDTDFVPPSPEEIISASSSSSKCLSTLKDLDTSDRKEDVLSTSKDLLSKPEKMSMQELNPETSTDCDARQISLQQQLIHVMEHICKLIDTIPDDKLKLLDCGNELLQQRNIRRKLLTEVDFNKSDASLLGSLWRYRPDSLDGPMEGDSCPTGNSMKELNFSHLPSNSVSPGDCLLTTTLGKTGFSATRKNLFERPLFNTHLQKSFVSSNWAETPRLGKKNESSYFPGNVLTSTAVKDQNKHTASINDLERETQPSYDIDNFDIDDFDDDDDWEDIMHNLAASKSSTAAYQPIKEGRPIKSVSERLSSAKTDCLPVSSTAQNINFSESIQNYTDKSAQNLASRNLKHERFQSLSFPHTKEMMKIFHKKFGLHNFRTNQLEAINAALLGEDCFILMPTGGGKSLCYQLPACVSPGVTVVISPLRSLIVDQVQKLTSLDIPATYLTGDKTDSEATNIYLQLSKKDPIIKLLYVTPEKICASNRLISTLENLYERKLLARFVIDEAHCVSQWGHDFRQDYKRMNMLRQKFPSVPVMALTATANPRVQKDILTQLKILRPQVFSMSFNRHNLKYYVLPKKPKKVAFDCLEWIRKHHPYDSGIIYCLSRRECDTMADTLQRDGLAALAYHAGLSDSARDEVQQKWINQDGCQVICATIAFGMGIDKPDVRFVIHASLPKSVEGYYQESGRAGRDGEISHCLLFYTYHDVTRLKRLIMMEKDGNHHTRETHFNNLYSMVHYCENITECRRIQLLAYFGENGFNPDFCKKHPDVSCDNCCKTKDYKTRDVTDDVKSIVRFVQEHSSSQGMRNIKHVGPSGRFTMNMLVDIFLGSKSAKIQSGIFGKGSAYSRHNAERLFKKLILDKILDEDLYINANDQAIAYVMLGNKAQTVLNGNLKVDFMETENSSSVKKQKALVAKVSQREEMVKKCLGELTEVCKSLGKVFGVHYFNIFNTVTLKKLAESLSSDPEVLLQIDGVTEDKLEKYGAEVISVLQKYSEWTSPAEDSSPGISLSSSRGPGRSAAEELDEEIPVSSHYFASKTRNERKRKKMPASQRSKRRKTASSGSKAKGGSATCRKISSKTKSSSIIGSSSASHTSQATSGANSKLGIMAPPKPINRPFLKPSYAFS

[2] = target: T1, RecQ-like DNA helicase BLM; assay: Binding affinity to His-tagged BLM (642 to 1296 residues) (unknown origin) expressed in Escherichia coli BL21 (DE3) cells assessed as inhibition of protein interaction with 5'-biotin-labeled forked DNA measured after 1 hr by ELISA
[3] = target: T1, RecQ-like DNA helicase BLM; assay: Binding affinity to wild-type His-tagged BLM (642 to 1296 residues) (unknown origin) expressed in Escherichia coli BL21 (DE3) cells by isothermal calorimetric titration assay
[4] = target: RecQ-like DNA helicase BLM (Homo sapiens, UniProt P54132, H996A); assay: Binding affinity to His-tagged BLM H996A mutant (unknown origin) expressed in Escherichia coli BL21 (DE3) cells by isothermal calorimetric titration assay
Sequence of RecQ-like DNA helicase BLM (Homo sapiens, UniProt P54132, H996A) (P54132 whole entry H996A): as the sequence (P54132 whole entry, the tested form may be a part) above, with H996A counted along it

HCT-116 [5] = assay: Cytotoxicity against human HCT116 cells by MTT assay; assay type: functional, cell-based
[6] = target: RecQ-like DNA helicase BLM (Homo sapiens, UniProt P54132, I1168A); assay: Binding affinity to His-tagged BLM I1168A mutant (unknown origin) expressed in Escherichia coli BL21 (DE3) cells by isothermal calorimetric titration assay
Sequence of RecQ-like DNA helicase BLM (Homo sapiens, UniProt P54132, I1168A) (P54132 whole entry I1168A): as the sequence (P54132 whole entry, the tested form may be a part) above, with I1168A counted along it

[7] = target: T1, RecQ-like DNA helicase BLM; assay: Inhibition of BLM in human HCT116 cells assessed as down regulation of HRR level at 0.5 uM measured after 24 hrs by luciferase reporter gene assay; assay type: cell-based; settings: HCT-116
[8] = target: T1, RecQ-like DNA helicase BLM; assay: Inhibition of BLM in human HCT116 cells assessed as increase in gamma-H2AX level at 2 uM measured after 24 hrs by Western blot analysis; assay type: cell-based; settings: HCT-116
[9] = target: T1, RecQ-like DNA helicase BLM; assay: Binding affinity to BLM in human HCT116 cells cotransfected with DSB model and I-SceI plasmid assessed as reduction in recruitment of protein to DSB site in DNA at 2 uM measured after 24 hrs by chromatin immunoprecipitation assay; assay type: cell-based; settings: HCT-116
[10] = target: T1, RecQ-like DNA helicase BLM; assay: Binding affinity to BLM in human HCT116 cells cotransfected with DSB model and I-SceI plasmid assessed as reduction in recruitment of protein to DNA region distant from DSB site at 2 uM measured after 24 hrs by chromatin immunoprecipitation assay; assay type: cell-based; settings: HCT-116
[11] = target: T1, RecQ-like DNA helicase BLM; assay: Inhibition of BLM in human HCT116 cells assessed as potentiation of niraparib-induced cytotoxicity at 1 to 2 uM measured after 48 hrs by MTT assay relative to niraparib alone; assay type: cell-based; settings: HCT-116
[12] = target: T1, RecQ-like DNA helicase BLM; assay: Inhibition of BLM in human HCT116 cells assessed as potentiation of olaparib-induced cytotoxicity at 1 to 2 uM measured after 48 hrs by MTT assay relative to olaparib alone; assay type: cell-based; settings: HCT-116
[13] = target: T1, RecQ-like DNA helicase BLM; assay: Inhibition of BLM in human HCT116 cells assessed as potentiation of niraparib-induced cytotoxicity by measuring combination index at 1 to 2 uM measured after 48 hrs by MTT assay; assay type: cell-based; settings: HCT-116
[14] = target: T1, RecQ-like DNA helicase BLM; assay: Inhibition of BLM in human HCT116 cells assessed as potentiation of olaparib-induced cytotoxicity by measuring combination index at 1 to 2 uM measured after 48 hrs by MTT assay; assay type: cell-based; settings: HCT-116
[15] = target: T1, RecQ-like DNA helicase BLM; assay: Inhibition of BLM in human HCT116 cells assessed as potentiation of cisplatin-induced cytotoxicity by measuring combination index at 1 to 2 uM measured after 48 hrs by MTT assay; assay type: cell-based; settings: HCT-116
[16] = target: T1, RecQ-like DNA helicase BLM; assay: Inhibition of BLM in human HCT116 cells assessed as increase in gamma-H2AX foci at 1 to 4 uM measured after 24 hrs by DAPI staining based immunofluorescence assay; assay type: cell-based; settings: HCT-116
[17] = target: T1, RecQ-like DNA helicase BLM; assay: Inhibition of BLM in human HCT116 cells assessed as increase in gamma-H2AX-TRF2 foci colocalization mediated telomere dysfunction-induced foci formation measured after 24 hrs by DAPI staining based immunofluorescence assay; assay type: cell-based; settings: HCT-116
[18] = target: T1, RecQ-like DNA helicase BLM; assay: Inhibition of BLM in human HCT116 cells assessed as increase in gamma-H2AX-TRF2 foci colocalization mediated telomere dysfunction-induced foci formation at 1 to 4 uM measured after 24 hrs by DAPI staining based immunofluorescence assay relative to total gamma-H2AX foci; assay type: cell-based; settings: HCT-116
[19] = target: T1, RecQ-like DNA helicase BLM; assay: Inhibition of BLM in human HCT116 cells assessed as increase in gamma-H2AX-TRF2 foci colocalization mediated telomere dysfunction-induced foci formation at 1 uM measured after 24 hrs in presence of […] inhibitor niraparib by DAPI staining based immunofluorescence assay; assay type: cell-based; settings: HCT-116
[20] = target: T1, RecQ-like DNA helicase BLM; assay: Inhibition of BLM in human HCT116 cells assessed as potentiation of BIBR1532-induced cytotoxicity by measuring combination index at 1 to 2 uM measured after 48 hrs by MTT assay; assay type: cell-based; settings: HCT-116
[21] = target: T1, RecQ-like DNA helicase BLM; assay: Inhibition of BLM in human HCT116 cells assessed as upregulation of ATM phosphorylation up to 4 uM by Western blot analysis; assay type: cell-based; settings: HCT-116
[22] = target: T1, RecQ-like DNA helicase BLM; assay: Inhibition of BLM in human HCT116 cells assessed as upregulation of ATR phosphorylation up to 4 uM by Western blot analysis; assay type: cell-based; settings: HCT-116
[23] = target: T1, RecQ-like DNA helicase BLM; assay: Inhibition of BLM in human HCT116 cells assessed as upregulation of CHK1 phosphorylation by Western blot analysis; assay type: cell-based; settings: HCT-116
[24] = target: T1, RecQ-like DNA helicase BLM; assay: Inhibition of BLM in human HCT116 cells assessed as upregulation of CHK2 phosphorylation by Western blot analysis; assay type: cell-based; settings: HCT-116
[25] = target: T1, RecQ-like DNA helicase BLM; assay: Inhibition of BLM in human HCT116 cells assessed as induction of telomere end loss at 4 uM by fluorescent in situ hybridization; assay type: cell-based; settings: HCT-116
HCT-116 [26] = assay: Induction of apoptosis in human HCT116 cells measured after 48 hrs by Annexin V-FITC/propidium iodide staining based flow cytometry; assay type: functional, cell-based
HCT-116 [27] = assay: Induction of apoptosis in human HCT116 cells assessed as apoptotic cell population at 4 uM measured after 48 hrs by Annexin V-FITC/propidium iodide staining based flow cytometry (reference value: 17.4%); assay type: functional
HCT-116 [28] = assay: Induction of apoptosis in human HCT116 cells assessed as upregulation of cleaved caspase-3 expression up to 4 uM measured after 48 hrs by Western blot analysis; assay type: functional, cell-based
HCT-116 [29] = assay: Induction of apoptosis in human HCT116 cells assessed as upregulation of cleaved caspase-7 expression up to 4 uM measured after 48 hrs by Western blot analysis; assay type: functional, cell-based
HCT-116 [30] = assay: Induction of apoptosis in human HCT116 cells assessed as upregulation of cleaved PARP expression up to 4 uM measured after 48 hrs by Western blot analysis; assay type: functional, cell-based
HCT-116 [31] = assay: Antiproliferative activity against wild-type human HCT116 cells assessed as inhibition of cell proliferation by real-time cellular analysis; assay type: functional, cell-based
HCT-116 [32] = assay: Antiproliferative activity against human HCT116 cells harboring siBLM assessed as inhibition of cell proliferation at 1 to 2 uM by real-time cellular analysis; assay type: functional, cell-based

CCN(CC)CCCNc1cc2nc(/C=C/c3ccc(C(C)C)cc3)n(CCCl)c(=O)c2cc1F
IC50 [1]: 800 nM | IC50 [2]: 8700 nM | Kd [3]: 760 nM | Kd [4]: 1400 nM | Activity (HCT-116 [5]): Active | Kd [6]: 6540 nM | inhibition [7]: Active | inhibition [8]: Active | Activity [9]: Active | Activity [10]: Active | fold change (FC) [11]: 2 to 4 | fold change (FC) [12]: 2 to 4 | CI [13]: 0.4 to 0.8 | CI [14]: 0.4 to 0.8 | CI [15]: 0.6 to 0.8 | inhibition [16]: Active | inhibition [17]: Dose-dependent effect | inhibition [18]: > 70% | inhibition [19]: Active | CI [20]: 0.5 to 0.8 | inhibition [21]: Active | inhibition [22]: Active | inhibition [23]: Dose-dependent effect | inhibition [24]: Dose-dependent effect | inhibition [25]: Active | Activity (HCT-116 [26]): Dose-dependent effect | Activity (HCT-116 [27]): 76% | Activity (HCT-116 [28]): Active | Activity (HCT-116 [29]): Active | Activity (HCT-116 [30]): Active | inhibition (HCT-116 [31]): Dose-dependent effect | inhibition (HCT-116 [32]): inactive
